Laboratory results reported in patent US12180485B2, “Repressible control of gene expression” (TRUSTEES OF BOSTON UNIVERSITY, priority 2020, dated 2024).
Where two headings read alike, the source gives them in different places.

What was measured:
CID domains = conditions: cited from earlier work; for Kd: ligand / CID dimerization domain, read-out: Dissociation constant (Kd); for Reversibility: reversibility of the ligand-induced dimerization / action
mammalian systems = conditions: cited from earlier work
mCherry [1] = experiment: Drug inhibited knockdown system (Cas13 OFF switch, dNS3/ANR domains), mCherry expression; type: cell-based; conditions: split Cas13d linked to dNS3 and ANR domains
Cre reporter = experiment: Caffeine inducible split Cre (CaffVHH), Cre reporter in transfected cells; type: cell-based
grazoprevir/NS3a complex = grazoprevir/NS3a complex (Hepatitis C virus genotype 1a, UniProt P27958, T1100M/T1173A); conditions: cited from earlier work
asunaprevir-bound NS3a = asunaprevir-bound NS3a (Hepatitis C virus genotype 1a, UniProt P27958, T1100M/T1173A); conditions: cited from earlier work
NS3a/danoprevir complex = NS3a/danoprevir complex (Hepatitis C virus genotype 1a, UniProt P27958, T1100M/T1173A); conditions: cited from earlier work
mCherry [2] = experiment: mCherry knockdown by inducible split RfxCas13d (ON switch) in transfected HEK 293 FT cells, flow cytometry; type: cell-based; conditions: for knockdown with assistance of gRNA: mCherry
[3] = toxicity in mammalian systems at working concentration

For CC1=CC(=O)CC(C)(C)[C@@]1(O)/C=C/C(C)=C\C(=O)O [Abscisic acid], the Kd (CID domains) is listed as 20 nM, the Reversibility (CID domains) is listed as “yes” and the “Toxicity*” value (mammalian systems) is listed as “no”.

With CC(C)(C)OC(=O)N[C@H]1CCCCC/C=C\[C@@H]2C[C@@]2(C(=O)NS(=O)(=O)C2CC2)NC(=O)[C@@H]2C[C@@H](OC(=O)N3Cc4cccc(F)c4C3)CN2C1=O [Danoprevir] the “inhibition of constitutive knockdown activity of the OFF switch” value (mCherry [1]) was “able to inhibit the constitutive knockdown activity”.

For CO[C@H]1C[C@@H]2CC[C@@H](C)[C@@](O)(O2)C(=O)C(=O)N2CCCC[C@H]2C(=O)O[C@H]([C@H](C)C[C@@H]2CC[C@@H](O)[C@H](OC)C2)CC(=O)[C@H](C)/C=C(\C)[C@@H](O)[C@@H](OC)C(=O)[C@H](C)C[C@H](C)/C=C/C=C/C=C/1C [Rapamycin], the “Toxicity*” value (mammalian systems; [3]) is given as “no”.

For CC/C(=C(\c1ccccc1)c1ccc(OCCN(C)C)cc1)c1ccccc1 [Tamoxifen], the Reversibility (CID domains) is listed as “hardly” and the “Toxicity*” value (mammalian systems; [3]) is listed as “no”.

For Cn1c(=O)c2c(ncn2C)n(C)c1=O [caffeine, reference compound], the Kd (CID domains) is listed as 1200 nM, the Reversibility (CID domains) is listed as “yes” and the “caffeine concentration able to turn on Cre activity and generate reporter expression” value (Cre reporter; 48 hours) is listed as 0.1 µM. For the same molecule, the “caffeine concentration not sufficient to induce recombination” value (Cre reporter; FIG. 1C) was 0.01 µM, the “caffeine concentration over which recombination efficiency did not increase significantly” value (Cre reporter; FIG. 1C) was “over 50 uM” and the “Toxicity*” value (mammalian systems; [3]) was “no”.

For Gibberellin, the Kd (CID domains) is listed as 1000 nM, the Reversibility (CID domains) is listed as “yes” and the “Toxicity*” value (mammalian systems; [3]) is listed as “yes”.

B1: D5: reader domain, SEQ ID NO: 166 (protein)
chain: SSDEEEARELIERAKEAAERAQEAAERTGDPRVRELARELKRLAQEAAEEVKRDPSSSDVNEALKLIVEAIEAAVDALEAAERTGDPEVRELARELVRLAVEAAEEVQRNPSSSDVNEALLTIVIAIEAAVNALEAAERTGDPEVRELARELVRLAVEAAEEVQRNPSSREVNIALWKIVLAIQEAVESLREAEESGDPEKREKARERVREAVERAEEVQRDPSGWLNH
For B1, the “binding of NS3 in the presence of grazoprevir” value (shortened to “binding of NS3 … of grazoprevir”) (grazoprevir/NS3a complex) is given as “moderate binding”, the “binding of NS3 in the presence of asunaprevir” value (“binding of NS3 … of asunaprevir” for short) (asunaprevir-bound NS3a) is given as “some binding” and the “binding of NS3 in the presence of danoprevir” value (“binding of NS3 … of danoprevir” below) (NS3a/danoprevir complex) is given as “moderate binding”.

B2: DNCR1: danoprevir/NS3 complex reader, SEQ ID NO: 167 (protein)
chain: SSDEEEARELIERAKEAAERAQEAAERTGDPRVRELARELKRLAQEAAEEVKRDPSSSDVNEALKLIVEAIEAAVDALEAAERTGDPEVRELARELVRLAVEAAEEVQRNPSSSDVNEALLSIVIAIEAAVHALEAAERTGDPEVRELARELVRLAVEAAEEVQRNPSSREVEHALMKIVLAIYEAEESLREAEESGDPEKREKARERVREAVERAEEVQRDPSGWLNH
In the case of B2, the “binding of NS3 … of grazoprevir” value (grazoprevir/NS3a complex) is listed as “minimal binding”, the “binding of NS3 … of asunaprevir” value (asunaprevir-bound NS3a) is listed as “minimal binding” and the “binding of NS3 … of danoprevir” value (NS3a/danoprevir complex) is listed as “high binding”.

B3: 507/508: RfxCas13d split pair at 507/508 fused to CID or dNS3/ANR domains (protein)
chain 1: IEKKKSFAKGMGVKSTLVSGSKVYMTTFAEGSDARLEKIVEGDSIRSVNEGEAFSAEMADKNAGYKIGNAKFSHPKGYAVVANNPLYTGPVQQDMLGLKETLEKRYFGESADGNDNICIQVIHNILDIEKILAEYITNAAYAVNNISGLDKDIIGFGKFSTVYTYDEFKDPEHHRAAFNNNDKLINAIKAQYDEFDNFLDNPRLGYFGQAFFSKEGRNYIINYGNECYDILALLSGLRHWVVHNNEEESRISRTWLYNLDKNLDNEYISTLNYLYDRITNELTNSFSKNSAANVNYIAETLGINPAEFAEQYFRFSIMKEQKNLGFNITKLREVMLDRKDMSEIRKNHKVFDSIRTKVYTMMDFVIYRYYIEEDAKVAAANKSLPDNEKSLSEKDIFVINLRGSFNDDQKDALYYDEANRIWRKLENIMHNIKEFRGNKTREYKKKDAPRLPRILPAGRDVSAFSKLMYALTMFLDGKEINDLLTTLINKFDNIQSFLKVMPLIGVN
chain 2: AKFVEEYAFFKDSAKIADELRLIKSFARMGEPIADARRAMYIDAIRILGTNLSYDELKALADTFSLDENGNKLKKGKHGMRNFIINNVISNKRFHYLIRYGDPAHLHEIAKNEAVVKFVLGRIADIQKKQGQNGKNQIDRYYETCIGKDKGKSVSEKVDALTKIITGMNYDQFDKKRSVIEDTGRENAEREKFKKIISLYLTVIYHILKNIVNINARYVIGFHCVERDAQLYKEKGYDINLKKLEEKGFSSVTKLCAGIDETAPDKRKDVEKEMAERAKESIDSLESANPKLYANYIKYSDEKKAEEFTRQINREKAKTALNAYLRNTKWNVIIREDLLRIDNKTCTLFRNKAVHLEVARYVHAYINDIAEVNSYFQLYHYIMQRIIMNERYEKSSGKVSEYFDAVNDEKKYNDRLLKLLCVPFGYCIPRFKNLSIEALFDRNEAAKFDKEKKKVSGNS
modifications: fused CID or dNS3/ANR domains
notes: RfxCas13d split pair at 507/508 fused to CID or dNS3/ANR domains
In the case of B3, the “performance of reversed CID orientation versus original orientation” value (mCherry [2]; GIB: N ss-GAI/GID-ss C, ABA: N ss-PYL/ABI-ss C) is reported as “stronger inducibility and weaker leakiness” and the “knockdown across the various CID systems” value (mCherry [2]; split pairs coupled with CID domains, with inducer) is reported as “consistently strong drug-induced knockdown”.

B4: single CaffVHH: single CaffVHH version of split Cre 270/271 (protein)
VHH: EVQLQASGGGLVQAGGSLRLSCTASGRTGTIYSMAWFRQAPGKEREFLATVGWSSGITYYMDSVKGRFTISRDNAKNSAYLQMNSLKPEDTAVYYCTATRAYSVGYDYWGQGTQVTVSH
With B4 the “caffeine concentration achieving maximum recombination efficiency” value (Cre reporter; dose response, split Cre 270/271) was 500 µM.

B5: 177/178: RfxCas13d split pair at 177/178 (protein)
chain 1: IEKKKSFAKGMGVKSTLVSGSKVYMTTFAEGSDARLEKIVEGDSIRSVNEGEAFSAEMADKNAGYKIGNAKFSHPKGYAVVANNPLYTGPVQQDMLGLKETLEKRYFGESADGNDNICIQVIHNILDIEKILAEYITNAAYAVNNISGLDKDIIGFGKFSTVYTYDEFKDPEHHRAA
chain 2: FNNNDKLINAIKAQYDEFDNFLDNPRLGYFGQAFFSKEGRNYIINYGNECYDILALLSGLRHWVVHNNEEESRISRTWLYNLDKNLDNEYISTLNYLYDRITNELTNSFSKNSAANVNYIAETLGINPAEFAEQYFRFSIMKEQKNLGFNITKLREVMLDRKDMSEIRKNHKVFDSIRTKVYTMMDFVIYRYYIEEDAKVAAANKSLPDNEKSLSEKDIFVINLRGSFNDDQKDALYYDEANRIWRKLENIMHNIKEFRGNKTREYKKKDAPRLPRILPAGRDVSAFSKLMYALTMFLDGKEINDLLTTLINKFDNIQSFLKVMPLIGVNAKFVEEYAFFKDSAKIADELRLIKSFARMGEPIADARRAMYIDAIRILGTNLSYDELKALADTFSLDENGNKLKKGKHGMRNFIINNVISNKRFHYLIRYGDPAHLHEIAKNEAVVKFVLGRIADIQKKQGQNGKNQIDRYYETCIGKDKGKSVSEKVDALTKIITGMNYDQFDKKRSVIEDTGRENAEREKFKKIISLYLTVIYHILKNIVNINARYVIGFHCVERDAQLYKEKGYDINLKKLEEKGFSSVTKLCAGIDETAPDKRKDVEKEMAERAKESIDSLESANPKLYANYIKYSDEKKAEEFTRQINREKAKTALNAYLRNTKWNVIIREDLLRIDNKTCTLFRNKAVHLEVARYVHAYINDIAEVNSYFQLYHYIMQRIIMNERYEKSSGKVSEYFDAVNDEKKYNDRLLKLLCVPFGYCIPRFKNLSIEALFDRNEAAKFDKEKKKVSGNS
In the case of B5, the “knockdown with assistance of gRNA” value (mCherry [2]) is reported as “relatively efficient knockdown”.

B6: G3: reader domain, SEQ ID NO: 168 (protein)
chain: DIEKLCKKAEEEAKEAQEKADELRQRHPDSQAAEDAEDLANEAEAAVLAACSLAQEHPNADIAKLCIKAASEAAEAASKAAELAQRHPDSQAARDAIKLASQAARAVILAIMLAAENPNADIAKLCIKAASEAAEAASKAAELAQRHPDSQAARDAIKLASQAAEAVERAIWLAAENPNADIAKKCIKAASEAAEEASKAAEEAQRHPDSQKARDEIKEASQKAEEVKERCKS
In the case of B6, the “binding of NS3 … of grazoprevir” value (grazoprevir/NS3a complex) is given as “moderate binding”, the “binding of NS3 … of asunaprevir” value (asunaprevir-bound NS3a) is given as “some binding” and the “binding of NS3 … of danoprevir” value (NS3a/danoprevir complex) is given as “no binding”.

B7: 384/385: RfxCas13d split pair at 384/385 (protein)
chain 1: IEKKKSFAKGMGVKSTLVSGSKVYMTTFAEGSDARLEKIVEGDSIRSVNEGEAFSAEMADKNAGYKIGNAKFSHPKGYAVVANNPLYTGPVQQDMLGLKETLEKRYFGESADGNDNICIQVIHNILDIEKILAEYITNAAYAVNNISGLDKDIIGFGKFSTVYTYDEFKDPEHHRAAFNNNDKLINAIKAQYDEFDNFLDNPRLGYFGQAFFSKEGRNYIINYGNECYDILALLSGLRHWVVHNNEEESRISRTWLYNLDKNLDNEYISTLNYLYDRITNELTNSFSKNSAANVNYIAETLGINPAEFAEQYFRFSIMKEQKNLGFNITKLREVMLDRKDMSEIRKNHKVFDSIRTKVYTMMDFVIYRYYIEEDAKVAAANKSL
chain 2: PDNEKSLSEKDIFVINLRGSFNDDQKDALYYDEANRIWRKLENIMHNIKEFRGNKTREYKKKDAPRLPRILPAGRDVSAFSKLMYALTMFLDGKEINDLLTTLINKFDNIQSFLKVMPLIGVNAKFVEEYAFFKDSAKIADELRLIKSFARMGEPIADARRAMYIDAIRILGTNLSYDELKALADTFSLDENGNKLKKGKHGMRNFIINNVISNKRFHYLIRYGDPAHLHEIAKNEAVVKFVLGRIADIQKKQGQNGKNQIDRYYETCIGKDKGKSVSEKVDALTKIITGMNYDQFDKKRSVIEDTGRENAEREKFKKIISLYLTVIYHILKNIVNINARYVIGFHCVERDAQLYKEKGYDINLKKLEEKGFSSVTKLCAGIDETAPDKRKDVEKEMAERAKESIDSLESANPKLYANYIKYSDEKKAEEFTRQINREKAKTALNAYLRNTKWNVIIREDLLRIDNKTCTLFRNKAVHLEVARYVHAYINDIAEVNSYFQLYHYIMQRIIMNERYEKSSGKVSEYFDAVNDEKKYNDRLLKLLCVPFGYCIPRFKNLSIEALFDRNEAAKFDKEKKKVSGNS
For B7, the “knockdown with assistance of gRNA” value (mCherry [2]) was “relatively efficient knockdown”.
